Measurements published in US6967102B1, “Nitric oxide manipulation of muscle satellite cell activation” (University of Manitoba, priority 1999, dated 2005).

What was measured:
regenerating mdx muscles = assay: Muscle regeneration 6 days after crush injury, mdx mice; format: in vivo; conditions: single L-NAME injection
Experimental: The time course of treatment effects was determined at two intervals; during the early response 0, 5, 10 and 30 min after injury, and over the longer term after 6 days recovery. Short term experiments were repeated at least twice. The longer term animals were maintained either on plain drinking water or water containing fresh L-NAME at 12.5 mg/100 ml (30 mg/kg/day), based on an intake of 6–7 ml/day/mouse (McIntosh et al., 1994. 17:444–453). In the longer term repair studies, there were 4 normal mice in each of saline- and L-NAME-treated groups. An additional 2 normal and 2 mdx mice were injected once before injury with L-NAME and given plain water for 6 days.
Sections and cultures were viewed on an Olympus microscope equipped with epifluorescence and phase contrast optics. Observations were based on systematic viewing of 2–4 longitudinal sections per muscle (separated by […]). In the case of muscle regenerating from crush injury, observations (without knowledge of treatment group) were made in pre-set fields of muscle from the central crush region, the adjacent regenerating region and the surviving region as reported (McIntosh et al. (1994) Muscle Nerve 17: 444–453). Representative photographs of muscle fibers and satellite cells were taken on over 700 frames of ASA 400 Fuji Sensia slide film. […]

NOS = biological target: T1, NOS (Mus musculus, UniProt Q9Z0J4); assay: NADPH-diaphorase enzyme histochemistry of NOS activity on muscle sections; format: in vivo, mice
T1 construct: confirmed using NADPH-diaphorase enzyme histochemistry on frozen sections; from tissue; host or cells: frozen sections of tibialis anterior muscle from normal mice pretreated ip with saline or L-NAME
Experimental: Sections ([…]) were collected on glass slides and stained with toluidine blue. The inhibition of NOS enzyme activity by L-NAME treatment 30 min. before crush was confirmed using NADPH-diaphorase enzyme histochemistry on frozen sections with jejunal epithelium as the positive control, according to Beesley (1995) Histochem. J. 27: 757–769.
i) satellite cells are identified and examined for hypertrophy and position using immunostaining for two c-met receptor, m-cadherin, neural cell adhesion molecule (N-CAM or leu19) and CD34, as markers of muscle satellite precursor cells (Irintchev A, Zeschnigk M. Starzinski-Powitz A, and Wernig A. (1994). Dev. […] In other sections c-met and HGF colocalization are used to assess activation (after (Tatsumi R, Anderson J E, Nevoret C J, Halevy 0, and Allen R E. (1998). Dev. Biol. 194:114–128). Routine fluorescent or peroxidase-conjugated secondary antibodies are used to visualize labelled satellite cells. • ii) NOS activity are determined to assess the effect of treatments that manipulate NOS activity. […] This method is modified to study homogenized tissue NOS activity. • iii) NOS expression is determined using in situ hybridisation (and Northern blotting) with a riboprobe specific for NOS-Iμ (the muscle isoform of NOS-I), made with custom primers (Kobzik L, Reid M B, Bredt D S, and Stamler J S. (1994). […]

satellite cells = assay: Histology and immunostaining (m-cadherin, c-met, HGF/SF) of satellite cells 0 and 10 min after crush; format: in vivo, normal mice
Experimental: A separate experiment was conducted to study the immediate effects of injury on muscle and satellite cell histology. […] Muscles were bisected longitudinally, and half of each muscle was frozen in OCT. for cryosectioning. Sections were stained with H&E or immunostained using primary antibodies to c-met (1:400), HGF/SF (1:1000, R&D Systems) or developmental myosin heavy chain ([…], 1:250, Novocastra Laboratories) as reported ([…] et al. (1996) Exp. Cell Res. 22: 214-222; Tatsumi et al. (1998) Dev. Biol. 194: 114-128) or against m-cadherin (1:50, Santa Cruz). […] Sections and cultures were viewed on an Olympus microscope equipped with epifluorescence and phase contrast optics. […] In the case of muscle regenerating from crush injury, observations (without knowledge of treatment group) were made in pre-set fields of muscle from the central crush region, the adjacent regenerating region and the surviving region as reported (McIntosh et al. (1994) Muscle Nerve 17: 444-453). Representative photographs of muscle fibers and satellite cells were taken on over 700 frames of ASA 400 Fuji […] slide film. Where stated, the number of satellite cells observed in each category, group or condition was estimated from photographed slides rather than from direct counts made during observations under oil immersion. Selected slides were scanned (Olympus Film Scanner ES-10, Olympus Optical Co., Tokyo), formatted into plates with little or no enlargement and printed (Freehand 8.0, Macromedia Inc.).

T1 sequence (Q9Z0J4 1-1463 isoform Q9Z0J4-5): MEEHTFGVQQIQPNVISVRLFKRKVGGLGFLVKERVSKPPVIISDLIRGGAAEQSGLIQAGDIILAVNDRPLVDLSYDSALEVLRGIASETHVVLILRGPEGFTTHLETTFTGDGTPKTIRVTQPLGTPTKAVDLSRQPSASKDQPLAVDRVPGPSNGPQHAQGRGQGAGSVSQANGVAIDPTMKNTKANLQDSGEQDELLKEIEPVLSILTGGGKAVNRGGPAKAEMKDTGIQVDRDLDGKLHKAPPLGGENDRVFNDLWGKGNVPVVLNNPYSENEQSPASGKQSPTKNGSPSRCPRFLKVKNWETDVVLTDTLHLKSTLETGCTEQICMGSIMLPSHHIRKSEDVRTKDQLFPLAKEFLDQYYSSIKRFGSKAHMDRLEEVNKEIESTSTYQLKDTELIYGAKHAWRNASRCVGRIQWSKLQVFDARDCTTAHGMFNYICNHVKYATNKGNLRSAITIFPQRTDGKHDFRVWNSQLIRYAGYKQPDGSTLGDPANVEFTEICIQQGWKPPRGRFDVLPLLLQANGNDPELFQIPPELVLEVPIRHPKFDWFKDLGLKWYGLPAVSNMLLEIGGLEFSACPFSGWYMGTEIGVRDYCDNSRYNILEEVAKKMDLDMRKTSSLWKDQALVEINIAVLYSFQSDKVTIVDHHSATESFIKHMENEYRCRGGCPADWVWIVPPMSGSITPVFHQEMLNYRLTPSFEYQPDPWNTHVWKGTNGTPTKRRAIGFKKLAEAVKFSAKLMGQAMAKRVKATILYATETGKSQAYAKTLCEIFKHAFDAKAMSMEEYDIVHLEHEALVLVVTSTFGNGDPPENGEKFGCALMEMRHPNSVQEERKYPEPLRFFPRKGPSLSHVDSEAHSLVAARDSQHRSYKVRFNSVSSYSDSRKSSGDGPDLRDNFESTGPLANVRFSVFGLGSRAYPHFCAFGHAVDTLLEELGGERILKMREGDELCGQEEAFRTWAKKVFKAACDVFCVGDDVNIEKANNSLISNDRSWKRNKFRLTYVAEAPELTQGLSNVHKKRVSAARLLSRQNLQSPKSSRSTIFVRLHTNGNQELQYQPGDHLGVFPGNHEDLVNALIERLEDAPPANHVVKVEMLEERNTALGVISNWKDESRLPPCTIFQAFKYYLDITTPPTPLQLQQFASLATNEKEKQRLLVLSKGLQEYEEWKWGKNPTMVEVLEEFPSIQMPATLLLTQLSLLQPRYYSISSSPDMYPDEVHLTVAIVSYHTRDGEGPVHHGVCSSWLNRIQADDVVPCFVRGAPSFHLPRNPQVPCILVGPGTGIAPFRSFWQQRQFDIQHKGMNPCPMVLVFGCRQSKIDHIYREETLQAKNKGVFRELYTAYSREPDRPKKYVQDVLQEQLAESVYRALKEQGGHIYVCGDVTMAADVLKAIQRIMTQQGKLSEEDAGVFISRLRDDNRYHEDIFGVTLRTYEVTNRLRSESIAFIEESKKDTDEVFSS

COC(=O)[C@@H](N)CCCNC(=N)N[N+](=O)[O-] [L-NAME, Nω-nitro-L-arginine methyl ester]
new myotubes in continuity with satellite cells, anchored inside external lamina sheaths (regenerating mdx muscles; 6 days): roughly 5% | regenerating muscle over 6 days (regenerating mdx muscles; n=2): subtle changes in regenerating mdx muscles | duration of decreased NOS activity (NOS; L-NAME, after ip injection): 40 min | NOS activity by NADPH-diaphorase staining (NOS; pre-treatment with L-NAME, muscle sections): inhibited NOS activity | normal rapid changes in satellite cell size and position (satellite cells; L-NAME treatment 30 min before crush): consistently delayed and restricted | satellite cells thin and attenuated in both RTA and LTA (satellite cells; L-NAME-treated mice, 0 min, more than 70 satellite cells identified): 85% | satellite cells with c-met and HGF/SF co-localized (satellite cells; L-NAME-treated mice, 10 min after injury): at least 70%
